Key:
[1] = tested on: partial, tonic-clonic and generalized seizures; details: clinically; cited from earlier work
[2] = tested on: MES, PTZ and amygdala-kindling seizure models; details: systemic PTZ; cited from earlier work
[3] = tested on: APPL/S mice; test: APP immunolabeling for dystrophic neurites, Thioflavin S staining for amyloid plaques in hippocampus; assay type: in vivo; details: transgenic mouse model of AD, APPL/S mice given vehicle or LM11A-31
Experimental: (§1) FIG. 30A is a photomicrograph of APP immunolabeling for dystrophic neurites (left) and Thioflavin S staining for amyloid plaques (right) in hippocampus of APPL/S mice given vehicle or LM11A-31 as indicated. Scale bars=25 μm. FIG. 30B is a photomicrograph of choline acetyltransferase-immunostained basal forebrain sections. Treatment of APPL/S mice with LM11A-31 was associated with increased length, volume, and branching of cholinergic neurites. […] Statistical significance was determined using ANOVA and post-hoc Student-Neuman-Keuls testing.

[4] = tested on: APPL/S mice; test: choline acetyltransferase immunostaining of cholinergic neurites in basal forebrain; assay type: in vivo, mouse; details: basal forebrain sections
Experimental: as §1

[5] = tested on: APP/PS1 mice; test: LTP / synaptic function in hippocampal slice preparations from AD model mice; parameters: species or system mouse; details: hippocampus
[6] = tested on: APPL/S mice; test: novel object recognition; assay type: in vivo, mouse
[7] = tested on: APPL/S mice; details: APPL/S transgenic AD mouse model; cited from earlier work
[8] = tested on: APPL/S mice; details: basal forebrain and hippocampus; cited from earlier work
[9] = tested on: APP/PS1 mice; details: slices derived from AD model mice; cited from earlier work
[10] = tested on: APPL/S mice; details: APPL/S transgenic AD mouse model; cited from earlier work; remark: listed apart in the source
[11] = tested on: APPL/S transgenic AD mouse model; details: cited from earlier work
[12] = tested on: amyloid-P-induced neurodegenerative mechanisms; details: previous in vitro studies; cited from earlier work
[13] = after oral administration; cited from earlier work
[14] = tested on: PTZ seizures; details: prior studies; cited from earlier work

## O=C1NC(=O)C(c2ccccc2)(c2ccccc2)N1 [PHT, phenytoin]
[1]
  clinical efficacy by seizure type: efficacy in partial and generalized tonic-clonic seizures

## O=C1Nc2ccc(Cl)cc2C(c2ccccc2Cl)=NC1O (stereo not drawn) [lorazepam]
[2]
  efficacy in conventional epilepsy models: efficacy in all three conventional models
[1]
  clinical efficacy by seizure type: efficacy in partial and generalized tonic-clonic seizures

## CC[C@H](C)[C@H](N)C(=O)NCCN1CCOCC1 [LM11A-31]
[3]
  dystrophic neurites and amyloid plaque formation in the hippocampus: rescued significantly
[4]
  length, volume, and branching of cholinergic neurites: increased
[5]
  LTP: normalizes
[6]
  object recognition deficits: prevented
[7]
  amyloid levels: without affecting
[8]
  cholinergic neuritic dystrophy: prevented
[9]
  synaptic impairment in hippocampal slice preparations: reversed
[10]
  deficits in novel object recognition: prevented deficits
[11]
  deficits in Y-maze performance: prevented deficits
[12]
  amyloid-P-induced neurodegenerative mechanisms: prevented
[13]
  brain concentrations: reach brain concentrations known to provide neuroprotection in vitro
  crossing of the blood brain barrier: cross the blood brain barrier

## CC[C@@H](C(N)=O)N1CCCC1=O [LEV, levetiracetam]
[2]
  efficacy in conventional epilepsy models: efficacy only in amygdala-kindling
[1]
  clinical efficacy by seizure type: efficacy for partial, tonic-clonic and non-convulsive generalized seizures

## CC[C@@H](CO)NC(=O)[C@@H]1C=C2c3cccc4c3c(cn4C)C[C@H]2N(C)C1 [methylsergide]
[14]
  effect on the beneficial effect of ANT electrical stimulation to raise threshold for PTZ seizures: largely blocked

From patent US11672466B2, “System and method for modeling brain dynamics in normal and diseased states” (THE REGENTS OF THE UNIVERSITY OF CALIFORNIA, priority 2013, dated 2023)
